We go through four molecules from US10933053B2, “Treating infections with ceftolozane/tazobactam in subjects having impaired renal function” (MERCK SHARP & DOHME CORP., priority 2013, dated 2021).

Data set [1] can be described thus: clinical. The following applies: human, in vivo. How it is done: The extent of ceftolozane exposure increases with decreasing renal function. […] In subjects with moderate renal impairment, exposure approximately doubles relative to that in subjects with normal renal function.
For tazobactam, this estimated exposure from a dose of 125 mg in subjects with severe renal impairment not on hemodialysis is similar to that achieved with 500 mg tazobactam in subjects with normal renal function (23.8 μg·h/mL).

The nature of data set [2]: clinical. The note with it: human, in vivo, 750 mg. How it is done: (§1) This was a Phase 1, multicenter, prospective, open-label study of 750 mg ceftolozane/tazobactam (as CXA-201) administered IV in male and female adult subjects with severe renal impairment (estimated CLCR<30 mL/min) and subjects with end-stage renal disease (ESRD) on hemodialysis (HD). The primary objective of the study was to determine the PK profile of ceftolozane/tazobactam in subjects with severe renal impairment and subjects with ESRD on HD and to determine the effect of HD on the clearance of ceftolozane/tazobactam.
(§2) Subjects with severe renal impairment received a single IV 1-hour infusion of 750 mg ceftolozane/tazobactam on Day 1. […] Subjects in this cohort received an IV dose of 750 mg ceftolozane/tazobactam as a 1 hour infusion immediately after their first HD session on Day 1 (post dialysis, approximately 72 hours prior to the next HD session) and a second dose of ceftolozane/tazobactam approximately 2 hours before their second HD session on Day 4 of the study. Infusion of ceftolozane/tazobactam was completed approximately 1 hour before the start of HD.
(§3) Subjects in both cohorts had urine (if not anuric) and plasma samples collected for determination of levels of ceftolozane, tazobactam and the M1 metabolite of tazobactam; subjects in the ESRD on HD cohort also had dialysate fluid samples collected for PK assessment. Plasma, urine, and dialysate levels of ceftolozane, tazobactam, and its metabolite M1 collected over a prespecified interval were determined by LC/MS/MS assay.

A short description of data set [3]: clinical. The note with it: human, in vivo. How it is done:
This TQT study was a single-center, prospective, randomized, double-blind, double-dummy, placebo and active controlled, 4-way crossover study that evaluated a single therapeutic 1.5 g and a single supratherapeutic 4.5 g dose of ceftolozane/tazobactam compared with placebo. Moxifloxacin 400 mg, given orally, was used as a positive control. All subjects received study drug on 4 dosing days (Day 1, Day 5, Day 9, and Day 13) in a crossover fashion with a 3-day wash-out period between doses. Healthy men and women were randomized on a 1:1:1:1 basis to 1 of 4 dosing sequences.
Electrocardiograms were recorded (triplicate measurements) over 24 hours on Day 1, Day 5, Day 9, and Day 13 using a 12-lead Holter monitor. Blood samples for determination of ceftolozane, tazobactam, and the M1 metabolite of tazobactam levels were obtained at prespecified time intervals prior to and following each electrocardiogram (ECG) reading on dosing days. Plasma levels of ceftolozane, tazobactam, and its metabolite M1 were determined by LC/MS/MS assay.
The source holds these as a separate data set.

Data set [4] in a line: clinical. The following applies: human, in vivo. Here is the method:
as §1, §2, §3
All subjects underwent hemodialysis for 3 to 4 hours using a high-flux membrane (either 1.4, 1.8, or 1.9 m^2) on Days 1, 4, and 6 as scheduled. Average blood flow rate was 264 to 600 mL/min and average dialysis flow rate was either 600 or 800 mL/min for all subjects with ESRD.
All cohorts received ceftolozane/tazobactam as an intravenous infusion over 1 h. The normal, mild, and moderate renal impairment cohorts received a single dose of ceftolozane/tazobactam 1,000 mg/500 mg; the severe renal impairment cohort received a single dose of ceftolozane/tazobactam 500 mg/250 mg; the ESRD cohort received a dose of ceftolozane/tazobactam 500 mg/250 mg initiated at the end of HD on day 1 and another dose initiated 2 h before HD on day 4. Subjects with ESRD underwent HD for 3 to 4 h using a high-flux membrane as scheduled; average dialysis flow rate was 600 to 800 ml/min. Revaclear hemodialyzers (Gambro, Stockholm, Sweden) were used in 5 subjects (ultrafiltration coefficient 50 to 60 ml/h/mmHg, high flux membrane of 1.4 to 1.8 m^2) and a CT 190G hemodialyzers (Baxter Healthcare, McGaw Park, Ill.) was used in 1 subject (ultrafiltration coefficient 36 ml/h/mmHg, high flux membrane of 1.9 m^2). The average blood flow rate was 400 to 600 ml/min with the exception of one subject with rates between 264 and 400 ml/min.
Plasma concentrations of ceftolozane and tazobactam were measured prior to, during, and following administration of ceftolozane/tazobactam. Blood samples were collected 30 min prior to administration, at the end of administration and at 5, 15, and 30 min and 1, 2, 3, 5, 7, 9, 11, 15, 25, and 35 h after completion of ceftolozane/tazobactam administration in the normal, mild, and moderate renal impairment cohorts. Severe renal impairment and ESRD cohorts off HD had samples taken 30 min prior to administration and at 0.5, 1, 1.5, 2, 3, 6, 9, 12, 24, 36, and 48 h after the start of administration. On the day of and following HD, the subjects with ESRD had samples taken 30 min prior to administration and at 0.5, 1, 1.5, 2, 3, 4, 5, 6, 9, 12, 24, 36, and 44 h after the start of the administration. The entire dialysate was collected at each of the following intervals: 0 to 1, 1 to 2, 2 to 3, and 3 h to the end of dialysis. Urine for PK analysis was obtained in the normal, mild, and moderate cohorts at 0 to 2, 2 to 4, 4 to 8, 8 to 12, 12 to 24, and 24 to 36 h after the start of ceftolozane/tazobactam administration.
The source holds these as a separate data set.

Data set [5] has as its system baseline intra-abdominal pathogens (complicated intra-abdominal infections). Put plainly: Phase 3 study of complicated intra-abdominal infections: clinical cure at test-of-cure. The data set is classed as in vivo, human. The following applies: ME population. How it is done: A total of 979 adults hospitalized with complicated intra-abdominal infections were randomized and received study medications in a multinational, double-blind study comparing CXA-201 (1.5 g IV every 8 hours) plus metronidazole (500 mg IV every 8 hours) to meropenem (1 g IV every 8 hours) for 4 to 14 days of therapy. Complicated intra-abdominal infections included appendicitis, cholecystitis, diverticulitis, gastric/duodenal perforation, perforation of the intestine, and other causes of intra-abdominal abscesses and peritonitis. The primary efficacy endpoint was clinical response at the test-of-cure (TOC) visit in the microbiological intent-to-treat (MITT) population, which included all patients who had at least 1 baseline intra-abdominal pathogen. The key secondary efficacy endpoint was clinical response at the TOC visit in the microbiologically evaluable (ME) population, which included all protocol-adherent MITT patients.

Data set [6] in a line: clinical. The note with it: human, in vivo. From the text:
The most common adverse reactions (≥5% in either indication) occurring in patients receiving CXA-201 were nausea, headache and diarrhea. Table 3 lists adverse reactions occurring in ≥1.0% of patients receiving CXA-201 in Phase 3 clinical trials.
The majority of adverse events were mild to moderate in severity, and the incidence of treatment-limiting adverse events was <2% in both treatment groups. Epidemiology and susceptibility of organisms isolated from patients with cUTI.
This is another data set of the same source.

Data set [7] relates to Gram-negative aerobic organisms isolated from patients with cUTI. Put plainly: Susceptibility testing of baseline cUTI isolates, CLSI broth microdilution (tazobactam fixed 4 μg/mL). The data set is classed as cell-based. The note with it: mMITT; ceftolozane/tazobactam breakpoint ≤8 mg/1, levofloxacin CLSI criteria. How it is done:
764 isolates of Gram-negative aerobic organisms were isolated from 800 patients in the microbiological modified intent-to-treat population (enrolled in 20 countries in Eastern Europe, North America, South America and 5 countries outside of these regions). Susceptibility (S) testing was performed with ceftolozane/tazobactam at a fixed 4 μg/mL of tazobactam and 10 antibiotic comparators using CLSI broth microdilution methods. ESBL enzymes were identified by PCR.

In data set [8] the test system is baseline uropathogens (complicated urinary tract infections). Put plainly: Phase 3 study of complicated urinary tract infections incl. pyelonephritis: composite cure / microbiological eradication at test-of-cure. The data set is classed as in vivo, human. The note with it: mMITT; patients with concurrent bacteremia. From the text:
The primary efficacy endpoint was the composite microbiological and clinical cure response at the test-of-cure (TOC) visit in the microbiologically modified intent-to-treat (mMITT) population, which included all patients who received study medication and had at least 1 baseline uropathogen. The key secondary efficacy endpoint was the composite microbiological and clinical cure response at the TOC visit in the microbiologically evaluable (ME) population, which included protocol-adherent mMITT patients with a urine culture at the TOC visit.

The subject of data set [9] is QT/QTc interval. The data set is classed as in vivo, human. The note with it: 400 mg orally, positive control.
From the text: The primary objectives of the study were to evaluate the effect of a single IV supratherapeutic dose of ceftolozane/tazobactam on ventricular repolarization as measured by QTc interval in healthy subjects compared to baseline-adjusted, time-matched placebo and to evaluate the change from the period-specific predose baseline of QT/QTc interval corrected by QTcI (individual QT correction subject-specific formula) across all dose groups.

Each structure is given as a SMILES string. Marks after values point to notes of the source that are not given here.

For the molecule `C[C@](Cn1ccnn1)([C@@H](N)C(=O)O)S(=O)O` [M1 Metabolite], the “t1/2, geometric mean” value in data set [1] came to 6.67 h. Also, in [2], the “AUClast, mean (CV %)” value is 53.7 (25) μg · h/mL and the “AUC∞, mean (CV %)” value is on record as 60.3 (30) μg · h/mL. In data set [3], this molecule came in with a Median tmax of 3.7 h. Besides, in data set [4], the “AUC0-∞” value is 31.0 (23.4-34.9) μg * hr/mL; the “AUC48h Ratio (Day 3:1), median (range)” value is recorded as 0.49 (0.38-0.78); the AUC(0-t) is 26.8 (3.77-32.0) μg * hr/mL; the “AUCt0-t1, median (range)” value is 27.5 (3.8-32.7) μg * hr/mL. Moreover, in data set [4], the “Change in Concentration” value is given as 9.1 (0.5-14.5), the Clast was 0.41 (0.26-1.11) μg/mL, the “Clast lower than Cmax” value is roughly 26 fold and the Cmax is on record as 10.9 (1.26-15.7) μg/mL. Moreover, in [4], the “Concentration after HD” value was 0.4 (0.3-1.1) μg/mL; the “Concentration before HD” value is 9.4 (1.4-14.9) μg/mL; the “Half-Life, median (range)” value is given as 368.4^a hr; the “Percent Removed” value was 93.4 (38.1-97.7) %. Further, in [4], the “Percent Removed, median (range)” value was 51 (22-63); the Tmax is recorded as 1.50 (0.50-1.50) hr; the half-life was 1.80 (0.68-2.38) hr; the “median RDHD (percent reduction in plasma concentration during HD)” value is recorded as 93%. In data set [4], the “median dialysis clearance (CLD)” value worked out at 4.59 L/h, the removed by dialysis is roughly 51% and the “t1/2 during the HD period (median)” value is listed as 1.80 h.

In the case of `C[C@@H](O)[C@H]1C(=O)N2C(C(=O)O)=C(S[C@@H]3CN[C@H](C(=O)N(C)C)C3)[C@H](C)[C@H]12` [Meropenem, meropenem], the “Per pathogen clinical cure rate” value in data set [5] (Aerobic Gram-negative) is reported as “(93.8) %”. For the same molecule, the “Per pathogen clinical cure rate” value in [5] (Aerobic Gram-positive) is recorded as “(91.9) %”. The “Per pathogen clinical cure rate” value in data set [5] (Anaerobic Gram-negative) is reported as “(96.4) %”. Besides, in [5] (Bacteroides thetaiotaomicron), the “Per pathogen clinical cure rate” value is “(93.0) %”. Further, in data set [5] (Klebsiella pneumoniae (CTX-M-15 ESBL-producing)), the “Per pathogen clinical cure rate” value is on record as “(0) %”. In data set [6], the ALT increased is on record as 5 (1.0), the AST increased is recorded as 3 (0.6), the Abdominal pain is recorded as 2 (0.4) and the Constipation was 6 (1.2). Further, in data set [6], the Diarrhea is given as 25 (5.0), the Headache is recorded as 9 (1.8), the Nausea is 29 (5.8) and the Vomiting was 20 (4.0).

For `C[C@H]1COc2c(N3CCN(C)CC3)c(F)cc3c(=O)c(C(=O)O)cn1c23` [Levofloxacin, levofloxacin], the “gram-negative pathogens isolated at baseline that were susceptible” value in data set [7] is reported as 70.7%. Also, in [6], the ALT increased is recorded as 5 (0.9); the AST increased is given as 5 (0.9); the Abdominal pain is recorded as 2 (0.4); the “Adverse events occurred, patients” value was 34.4%. Also, in [6], the Constipation is on record as 17 (3.2), the Diarrhea is reported as 23 (4.3), the Headache is 26 (4.9) and the Nausea is given as 9 (1.7). In addition, in data set [6], the Vomiting is 6 (1.1), the gastrointestinal symptoms came out at 11.4%, the headache worked out at 4.9% and the “incidence of treatment-limiting adverse events” value is reported as less than 2%. Further, in data set [8], the composite cure rate stood at 57.6%.

Turning to `COc1c(N2C[C@@H]3CCCN[C@@H]3C2)c(F)cc2c(=O)c(C(=O)O)cn(C3CC3)c12` [moxifloxacin], the “95% lower confidence bound on difference from baseline for QTcI vs placebo” value in [9] is listed as “above 5 ms”.
